pIC50: −log10 of the molar value. Calls of active or inactive are those of the source. The rule behind the calls is not given here.
Tests used:
NCI-H226 [1] = assay: Antiproliferative activity against human NCI-H226 cells incubated for 48 hrs by MTT assay; assay type: functional, cell-based; details: NCI-H226, 48 h
NCI-H226 [2] = assay: Induction of apoptosis in human NCI-H226 cells assessed as late apoptotic cells at 1 uM measured after 24 hrs by Annexin-V/propidium iodide staining-based flow cytometric analysis (reference value: 2.8%); assay type: functional
[3] = molecular target: Mitogen-activated protein kinase 1 (Homo sapiens) (UniProt P28482); assay: Inhibition of full length N-terminal GST-tagged human ERK2 (1 to 360 AA) expressed in Escherichia coli at 10 uM using FAM-labelled peptide as substrate pre-incubated for 10 mins followed by substrate addition by mobility shift assay relative to control
Mitogen-activated protein kinase 1 (Homo sapiens), sequence (P28482 whole entry, the tested form may be a part): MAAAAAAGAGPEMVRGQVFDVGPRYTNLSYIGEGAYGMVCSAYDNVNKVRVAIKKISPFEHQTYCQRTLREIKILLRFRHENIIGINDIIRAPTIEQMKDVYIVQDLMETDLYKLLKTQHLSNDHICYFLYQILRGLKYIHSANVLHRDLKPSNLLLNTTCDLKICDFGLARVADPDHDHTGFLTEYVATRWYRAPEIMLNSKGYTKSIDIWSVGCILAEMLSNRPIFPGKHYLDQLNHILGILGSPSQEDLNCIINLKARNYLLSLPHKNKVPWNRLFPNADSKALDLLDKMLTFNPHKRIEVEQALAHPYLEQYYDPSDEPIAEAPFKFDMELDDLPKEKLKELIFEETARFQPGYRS

[4] = molecular target: T1, Epidermal growth factor receptor (Homo sapiens, UniProt P00533); assay: Inhibition of N-terminal GST-tagged human EGFR cytoplasmic domain (669-1210 AA) expressed in baculovirus using FAM-labelled peptide as substrate pre-incubated for 10 mins followed by substrate addition by mobility shift assay
T1 sequence (P00533 whole entry, the tested form may be a part): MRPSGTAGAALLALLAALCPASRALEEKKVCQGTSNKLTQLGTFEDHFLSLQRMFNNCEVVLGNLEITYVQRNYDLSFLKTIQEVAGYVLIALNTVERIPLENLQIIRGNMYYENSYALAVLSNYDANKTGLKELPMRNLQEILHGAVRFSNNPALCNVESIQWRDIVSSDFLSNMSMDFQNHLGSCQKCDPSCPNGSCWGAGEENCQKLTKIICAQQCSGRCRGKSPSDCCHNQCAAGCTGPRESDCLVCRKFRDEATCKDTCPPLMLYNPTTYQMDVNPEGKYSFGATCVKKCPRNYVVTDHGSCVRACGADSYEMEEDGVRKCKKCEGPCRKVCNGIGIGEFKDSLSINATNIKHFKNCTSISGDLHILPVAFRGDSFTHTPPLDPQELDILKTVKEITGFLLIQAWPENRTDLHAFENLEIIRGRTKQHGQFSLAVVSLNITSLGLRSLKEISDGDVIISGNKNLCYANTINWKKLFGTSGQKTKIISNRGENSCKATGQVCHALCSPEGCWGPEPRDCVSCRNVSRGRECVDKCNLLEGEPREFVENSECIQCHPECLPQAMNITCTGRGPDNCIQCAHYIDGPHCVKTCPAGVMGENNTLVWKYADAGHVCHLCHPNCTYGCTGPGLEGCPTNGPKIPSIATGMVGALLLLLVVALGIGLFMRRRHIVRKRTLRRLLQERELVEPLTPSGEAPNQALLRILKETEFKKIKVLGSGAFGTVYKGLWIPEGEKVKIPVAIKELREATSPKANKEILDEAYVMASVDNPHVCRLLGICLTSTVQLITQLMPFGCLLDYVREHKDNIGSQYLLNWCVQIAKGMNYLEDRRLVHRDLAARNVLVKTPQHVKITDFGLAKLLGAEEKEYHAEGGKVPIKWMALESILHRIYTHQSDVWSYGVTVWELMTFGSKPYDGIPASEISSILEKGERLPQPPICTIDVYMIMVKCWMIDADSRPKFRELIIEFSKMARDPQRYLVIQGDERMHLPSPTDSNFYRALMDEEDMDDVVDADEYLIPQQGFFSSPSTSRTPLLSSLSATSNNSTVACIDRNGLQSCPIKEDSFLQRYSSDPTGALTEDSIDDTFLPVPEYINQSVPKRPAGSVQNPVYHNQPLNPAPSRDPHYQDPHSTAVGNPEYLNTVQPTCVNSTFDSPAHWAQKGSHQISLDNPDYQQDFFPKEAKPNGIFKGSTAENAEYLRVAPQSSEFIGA

NCI-H226 [5] = assay: Induction of apoptosis in human NCI-H226 cells assessed as necrotic cells at 10 uM measured after 24 hrs by Annexin-V/propidium iodide staining-based flow cytometric analysis (reference value: 3%); assay type: functional
[6] = molecular target: Inhibitor of nuclear factor kappa-B kinase subunit beta (Homo sapiens) (UniProt O14920); assay: Inhibition of N-terminal GST tagged truncated human IKKbeta (1 to 662 AA) expressed in baculovirus at 10 uM using FAM-labelled peptide as substrate pre-incubated for 10 mins followed by substrate addition by mobility shift assay relative to control
Inhibitor of nuclear factor kappa-B kinase subunit beta (Homo sapiens), sequence (O14920 whole entry, the tested form may be a part): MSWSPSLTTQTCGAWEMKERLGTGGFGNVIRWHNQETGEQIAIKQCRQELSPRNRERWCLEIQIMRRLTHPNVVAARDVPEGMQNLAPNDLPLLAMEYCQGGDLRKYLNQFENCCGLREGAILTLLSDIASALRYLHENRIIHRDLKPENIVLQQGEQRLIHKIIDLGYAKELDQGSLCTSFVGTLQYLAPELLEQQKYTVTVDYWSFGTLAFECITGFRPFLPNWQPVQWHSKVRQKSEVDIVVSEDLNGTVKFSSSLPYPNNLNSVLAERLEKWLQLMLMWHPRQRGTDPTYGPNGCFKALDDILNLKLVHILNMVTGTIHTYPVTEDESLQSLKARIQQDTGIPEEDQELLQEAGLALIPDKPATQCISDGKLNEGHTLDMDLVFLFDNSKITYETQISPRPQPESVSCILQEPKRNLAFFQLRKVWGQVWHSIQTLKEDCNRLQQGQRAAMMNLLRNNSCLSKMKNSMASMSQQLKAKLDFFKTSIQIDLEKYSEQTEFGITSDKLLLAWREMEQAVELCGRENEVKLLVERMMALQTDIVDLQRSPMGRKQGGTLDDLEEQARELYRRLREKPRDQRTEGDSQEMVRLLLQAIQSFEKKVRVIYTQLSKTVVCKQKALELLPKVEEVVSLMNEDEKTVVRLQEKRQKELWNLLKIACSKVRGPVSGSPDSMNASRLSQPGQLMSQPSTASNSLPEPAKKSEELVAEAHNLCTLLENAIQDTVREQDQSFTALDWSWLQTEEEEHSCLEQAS

[7] = molecular target: RAC-beta serine/threonine-protein kinase (Homo sapiens) (UniProt P31751); assay: Inhibition of N-terminal GST tagged human AKT2 catalytic domain (120 to 481 AA) expressed in baculovirus at 10 uM using FAM-labelled peptide as substrate pre-incubated for 10 mins followed by substrate addition by mobility shift assay relative to control
RAC-beta serine/threonine-protein kinase (Homo sapiens), sequence (P31751 whole entry, the tested form may be a part): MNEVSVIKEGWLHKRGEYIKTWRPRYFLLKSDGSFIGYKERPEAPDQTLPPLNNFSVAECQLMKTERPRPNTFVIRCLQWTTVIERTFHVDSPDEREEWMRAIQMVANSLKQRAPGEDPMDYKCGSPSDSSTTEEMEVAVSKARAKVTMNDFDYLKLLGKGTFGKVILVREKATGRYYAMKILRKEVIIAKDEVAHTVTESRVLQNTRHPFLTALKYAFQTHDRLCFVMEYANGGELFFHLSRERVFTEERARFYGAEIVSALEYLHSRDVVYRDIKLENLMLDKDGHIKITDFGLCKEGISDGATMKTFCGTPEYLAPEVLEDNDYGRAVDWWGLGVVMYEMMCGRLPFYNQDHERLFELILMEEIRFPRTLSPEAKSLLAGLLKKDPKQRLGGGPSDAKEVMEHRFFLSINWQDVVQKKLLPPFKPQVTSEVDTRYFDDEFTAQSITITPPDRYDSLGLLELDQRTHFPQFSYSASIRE

NCI-H226 [8] = assay: Induction of apoptosis in human NCI-H226 cells assessed as viable cells at 1 uM measured after 24 hrs by Annexin-V/propidium iodide staining-based flow cytometric analysis (reference value: 93.4%); assay type: functional; details: NCI-H226, 24 h, read-out: Activity
[9] = Induction of apoptosis in gefitinib-insensitive human HCC827GR cells assessed as early apoptotic cells at 10 uM measured after 24 hrs by Annexin-V/propidium iodide staining-based flow cytometric analysis (reference value: 1.9%); assay type: functional
[10] = molecular target: T1, Epidermal growth factor receptor; assay: Inhibition of N-terminal GST-tagged human EGFR (d746-750AA) expressed in baculovirus at 10 uM using FAM-labelled peptide as substrate pre-incubated for 10 mins followed by substrate addition by mobility shift assay relative to control
[11] = system: Epidermal growth factor receptor (Homo sapiens), P00533 [T790M]; assay: Inhibition of GST-tagged human EGFR T790M mutant expressed in baculovirus at 10 uM using FAM-labelled peptide as substrate pre-incubated for 10 mins followed by substrate addition by mobility shift assay relative to control
Epidermal growth factor receptor (Homo sapiens), P00533 [T790M], sequence (P00533 whole entry T790M): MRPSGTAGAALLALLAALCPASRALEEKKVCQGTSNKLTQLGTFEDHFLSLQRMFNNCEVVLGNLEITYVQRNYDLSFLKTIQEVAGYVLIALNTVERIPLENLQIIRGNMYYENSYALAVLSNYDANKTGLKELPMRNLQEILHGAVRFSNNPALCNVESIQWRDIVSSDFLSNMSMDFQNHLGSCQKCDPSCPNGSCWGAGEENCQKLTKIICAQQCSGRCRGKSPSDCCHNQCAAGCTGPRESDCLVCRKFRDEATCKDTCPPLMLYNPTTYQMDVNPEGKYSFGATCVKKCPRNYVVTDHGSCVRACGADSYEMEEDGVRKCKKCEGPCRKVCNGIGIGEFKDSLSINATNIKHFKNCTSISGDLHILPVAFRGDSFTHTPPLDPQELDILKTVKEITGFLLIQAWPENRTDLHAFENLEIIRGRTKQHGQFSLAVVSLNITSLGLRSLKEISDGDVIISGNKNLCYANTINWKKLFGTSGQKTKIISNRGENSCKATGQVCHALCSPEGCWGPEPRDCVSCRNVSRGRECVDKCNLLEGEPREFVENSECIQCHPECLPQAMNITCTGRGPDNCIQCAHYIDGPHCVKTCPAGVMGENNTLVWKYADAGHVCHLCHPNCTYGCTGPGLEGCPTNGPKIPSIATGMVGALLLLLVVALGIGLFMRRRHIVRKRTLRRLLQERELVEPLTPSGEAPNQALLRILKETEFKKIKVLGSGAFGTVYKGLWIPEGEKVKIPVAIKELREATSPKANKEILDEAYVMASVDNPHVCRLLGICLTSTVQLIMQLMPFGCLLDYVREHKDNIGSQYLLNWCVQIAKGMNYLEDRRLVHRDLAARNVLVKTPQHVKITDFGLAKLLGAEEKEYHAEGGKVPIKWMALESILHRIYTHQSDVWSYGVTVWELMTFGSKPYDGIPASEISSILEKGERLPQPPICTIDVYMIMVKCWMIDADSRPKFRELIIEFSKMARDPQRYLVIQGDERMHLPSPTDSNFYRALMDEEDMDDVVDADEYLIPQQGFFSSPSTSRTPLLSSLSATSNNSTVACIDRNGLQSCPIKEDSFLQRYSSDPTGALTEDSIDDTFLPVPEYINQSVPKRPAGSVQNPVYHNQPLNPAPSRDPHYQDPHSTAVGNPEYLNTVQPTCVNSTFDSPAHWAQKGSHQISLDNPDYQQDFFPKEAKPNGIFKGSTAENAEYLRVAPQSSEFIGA

[12] = molecular target: T1, Epidermal growth factor receptor; assay: Inhibition of EGFR in gefitinib-insensitive human HCC827GR cells assessed as reduction in EGF-induced Akt phosphorylation upto 10 uM measured after 2 hrs by western blot analysis
[13] = molecular target: Mitogen-activated protein kinase 3 (Homo sapiens) (UniProt P27361); assay: Inhibition of full length N-terminal GST-tagged human ERK1 (1 to 379 AA) expressed in Escherichia coli at 10 uM using FAM-labelled peptide as substrate pre-incubated for 10 mins followed by substrate addition by mobility shift assay relative to control
Mitogen-activated protein kinase 3 (Homo sapiens), sequence (P27361 whole entry, the tested form may be a part): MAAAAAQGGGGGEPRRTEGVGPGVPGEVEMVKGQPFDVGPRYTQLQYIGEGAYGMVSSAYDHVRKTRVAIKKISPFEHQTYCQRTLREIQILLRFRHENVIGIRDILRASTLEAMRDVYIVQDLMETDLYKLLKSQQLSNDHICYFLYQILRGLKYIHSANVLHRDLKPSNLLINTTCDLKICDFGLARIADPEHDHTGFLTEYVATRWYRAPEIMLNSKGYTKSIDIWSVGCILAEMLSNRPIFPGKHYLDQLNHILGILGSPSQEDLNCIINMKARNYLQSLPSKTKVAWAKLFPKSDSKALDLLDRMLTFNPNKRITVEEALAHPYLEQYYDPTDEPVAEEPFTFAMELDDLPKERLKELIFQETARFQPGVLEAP

## COc1ccc(OC)c(Nc2cc(NC(=O)Nc3c(Cl)cccc3Cl)ncn2)c1
NCI-H226 [1]
  pIC50: 5.65
NCI-H226 [2]
  Activity: 3.5%
[3]
  inhibition: 9.1%
[4]
  pIC50: 6.69
NCI-H226 [5]
  Activity: 11.8%
[6]
  inhibition: -0.73%
[7]
  inhibition: 12.7%
NCI-H226 [8]
  viability at 1 µM: 87.7%
[9]
  Activity: 13%
[10]
  inhibition: 95.8%
[11]
  inhibition: 86.8%
[12]
  inhibition: Active
[13]
  inhibition: 8.2%

From ChEMBL document CHEMBL4414679, “Discovery of 4,6-pyrimidinediamine derivatives as novel dual EGFR/FGFR inhibitors aimed EGFR/FGFR1-positive NSCLC” (Eur J Med Chem, 2020)
